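Briefly, cells in 96-well plates were exposed to five compound concentrations for 48 h, and endpoints were estimated by linear interpolation. Abbreviation: GI50, concentration required for 50% inhibition of growth.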 Calls of active or inactive are those of the source. Rule as the data show it: active = GI50 up to about 1.1 µM and inactive = higher. Non-standard residues stand in square brackets, D forms with d. Residues, ends and D or L forms follow the SMILES beside them. *: point of attachment. Bn2Val = CC(C)[C@@H](C(=O)*)N(Cc1ccccc1)Cc1ccccc1; NH(4-Cl-benzyl) = Clc1ccc(CN*)cc1; NMeV = CN[C@H](C(=O)O)C(C)C; dNMeA = CN[C@H](C)C(=O)O
Experiments:
Assay in all cases: growth of human tumour cells (NCI), 48 h
[1] = system: Malme-3M
[2] = system: HOP-62
[3] = system: NCI/ADR-RES
[4] = system: TK-10
[5] = system: OVCAR-4
[6] = system: MDA-MB-435
[7] = system: NCI-H522
[8] = system: SF-295
[9] = system: NCI-H23
[10] = system: IGROV-1
[11] = system: HCT-15
[12] = system: 786-0
[13] = system: ACHN
[14] = system: MCF7
[15] = system: K562
[16] = system: HL-60
[17] = system: SK-OV-3
[18] = system: MDA-N

SMILES | GI50 [1] | GI50 [2] | GI50 [3] | GI50 [4] | GI50 [5] | GI50 [6] | GI50 [7] | GI50 [8] | GI50 [9] | GI50 [10] | GI50 [11] | GI50 [12] | GI50 [13] | GI50 [14] | GI50 [15] | GI50 [16] | GI50 [17] | GI50 [18]
O=C(O)c1ccc(Oc2nc3ccccc3s2)cc1 | > 100 µM (inactive) | > 100 µM (inactive) | > 100 µM (inactive) | > 100 µM (inactive) | > 100 µM (inactive) | > 100 µM (inactive) | > 100 µM (inactive) | > 100 µM (inactive) | > 100 µM (inactive) | > 100 µM (inactive) | > 100 µM | > 100 µM (inactive) | > 100 µM (inactive) | > 100 µM (inactive) | > 100 µM (inactive) | > 100 µM (inactive) | > 100 µM (inactive) | 
COc1ccc(-c2cc(-c3ccncc3)nc(N)c2-c2ccc(F)cc2)cc1 | > 100 µM (inactive) | 45.4 µM (inactive) | 24.9 µM (inactive) | 35.2 µM (inactive) | 26.7 µM (inactive) | 21.2 µM (inactive) | 11.1 µM (inactive) | 80.9 µM (inactive) | 76 µM (inactive) | 10.6 µM (inactive) | 8.91 µM | 9.29 µM (inactive) | 3.76 µM (inactive) | 24.3 µM (inactive) | > 100 µM (inactive) |  | 95.9 µM (inactive) | 
CCOC(=O)c1cn(C)c(=S)n2c1nc1ccccc12 |  | > 100 µM (inactive) | 37.8 µM (inactive) |  | 34.8 µM (inactive) | > 100 µM (inactive) |  | 59.4 µM (inactive) | 91.8 µM (inactive) | 34.3 µM (inactive) | 91 µM | 74.1 µM (inactive) | 49.1 µM (inactive) | 44.6 µM (inactive) | > 100 µM (inactive) |  |  | 
O=C(c1ccco1)N(Cc1cccnc1)C(=S)N(Cc1cccnc1)C(=O)c1ccco1 | 16.7 µM (inactive) | 13.1 µM (inactive) | 34.2 µM (inactive) | 10.8 µM (inactive) | 20.4 µM (inactive) | 11.6 µM (inactive) | 13.5 µM (inactive) | 30.6 µM (inactive) | 23.8 µM (inactive) |  | 13 µM | 3.06 µM (inactive) | 17 µM (inactive) | 3.86 µM (inactive) | 4.84 µM (inactive) | 15.8 µM (inactive) | 33.6 µM (inactive) | 
Cc1cc(-c2c(Br)cc(C(=O)O)n2C)on1 | > 100 µM (inactive) | > 100 µM (inactive) | > 100 µM (inactive) | > 100 µM (inactive) | > 100 µM (inactive) | > 100 µM (inactive) | > 100 µM (inactive) | > 100 µM (inactive) | > 100 µM (inactive) |  | > 100 µM | > 100 µM (inactive) | > 100 µM (inactive) |  | > 100 µM (inactive) | > 100 µM (inactive) | > 100 µM (inactive) | > 100 µM (inactive)
Cc1oc(N)c(S(=O)(=O)c2ccc(Cl)cc2)c1C | 29.9 µM (inactive) |  | 34.9 µM (inactive) | 83.6 µM (inactive) | 21.7 µM (inactive) | 55.3 µM (inactive) | 30 µM (inactive) | 39.5 µM (inactive) | 32.8 µM (inactive) | 85.5 µM (inactive) | 34 µM | 73.8 µM (inactive) | 37 µM (inactive) | 50.4 µM (inactive) | 53.6 µM (inactive) | 88.9 µM (inactive) | 42.6 µM (inactive) | 
CC(C)[C@H](NC(=O)[C@H](C(C)C)N(Cc1ccccc1)Cc1ccccc1)C(=O)N(C)[C@H](C(=O)N1CCC[C@H]1C(=O)N(C)[C@H](C)C(=O)NCc1ccc(Cl)cc1)C(C)C (Bn2Val-V[NMeV]P[dNMeA]-{NH(4-Cl-benzyl)}) | 10.3 µM (inactive) | 4.38 µM (inactive) | 3.32 µM (inactive) | 5.87 µM (inactive) | 3.96 µM (inactive) | 4.03 µM (inactive) | 2.06 µM (inactive) | 3.11 µM (inactive) | 3.37 µM (inactive) | 2.69 µM (inactive) | 3.13 µM | 3.26 µM (inactive) | 2.98 µM (inactive) |  | 4.04 µM (inactive) | 1.77 µM (inactive) | 16.2 µM (inactive) | 4.43 µM (inactive)
